The Papp is a coefficient for how fast a substance crosses the barrier.

The nature of data set [1]: Apparent permeability across human Caco-2 cells in presence of BSA in basolateral chamber. Format: ADME, cell-based.
Data set [2] can be described thus: Toxicity against rat erythrocytes assessed as hemolysis upto 1000 uM in presence of BSA. In kind it is cell-based. Particulars: erythrocyte.
A short description of data set [3]: Metabolic stability in presence of BSA. In kind it is ADME.
Data set [4] is described as follows: Apparent permeability across human Caco-2 cells. In kind it is ADME, cell-based. (Passage across Caco-2 layers is used to estimate intestinal permeability.)
The test system of the next data set is Caco-2. Put plainly: Metabolic stability in human Caco-2 cell homogenate. Format: ADME, cell-based.
Data set [5] can be described thus: Toxicity against rat erythrocytes assessed as hemolysis upto 1000 uM. In kind it is cell-based. Particulars: erythrocyte.
Data set [6] in a line: Toxicity against rat erythrocytes assessed as decrease in hemolysis in presence of BSA. In kind it is cell-based. Particulars: erythrocyte.
Data set [7] can be described thus: Toxicity against rat erythrocytes assessed as induction of hemolysis at >= 1000 uM. Format: cell-based. The following applies: erythrocyte.

Consider `C=CC1=C(C)/C(=C/c2[nH]c(Cc3[nH]c(/C=C4\NC(=O)C(C)=C4C=C)c(C)c3CCC(=O)NCCS(=O)(=O)O)c(CCC(=O)NCCS(=O)(=O)O)c2C)NC1=O` [BILIRUBIN DITAURATE], for which the apparent permeability (Papp) in data set [1] came out at 3.52 ×10⁻⁶ cm/s; in data set [4], 0.39 ×10⁻⁶ cm/s. The Activity result in data set [2] and in data set [5] was “Non-toxic” in each case. The Stability entry (in data set [3]; with Caco-2) was “Stable” in each case.

In the case of `C=CC1=C(C)/C(=C/c2[nH]c(Cc3[nH]c(/C=C4\NC(=O)C(C)=C4C=C)c(C)c3CCC(=O)O)c(CCC(=O)O)c2C)NC1=O` [BILIRUBIN], the Papp worked out at 1.04 ×10⁻⁶ cm/s in data set [1] and 0.02 ×10⁻⁶ cm/s in data set [4]. In addition, in data set [3], the Stability was determined as 0.33 %/min. Further, the Activity result in data set [6] was “Non-toxic”; in data set [7], “Toxic”.

For `C=CC1=C(C)/C(=C/C2=NC(=C\c3[nH]c(/C=C4\NC(=O)C(C)=C4C=C)c(C)c3CCC(=O)N[C@H]3C(O)O[C@H](CO)[C@@H](O)[C@@H]3O)/C(CCC(=O)N[C@@H]3C(O)O[C@@H](CO)[C@H](O)[C@H]3O)=C2C)NC1=O` (some centres undefined) [BILIVERDIN DIGLUCOSAMINE], the Stability result (in data set [3]; in the data set on Caco-2) was “Stable” each time.

For the compound `C=CC1=C(C)/C(=C/C2=NC(=C\c3[nH]c(/C=C4\NC(=O)C(C)=C4C=C)c(C)c3CCC(=O)O)/C(CCC(=O)O)=C2C)NC1=O` [BILIVERDIN], the figures for the Papp in data set [1] and in data set [4] were 3.7 ×10⁻⁶ cm/s and 1.01 ×10⁻⁶ cm/s, respectively. Moreover, the Activity result in data set [2] and in data set [5] was “Non-toxic” throughout. Further, the Stability entry (in data set [3]; in the data set on Caco-2) was “Stable” throughout.
